Assay results as given in paper PMC6877959, “β-Lactoglobulin Heptapeptide Reduces Oxidative Stress in Intestinal Epithelial Cells and Angiotensin II-Induced Vasoconstriction on Mouse Mesenteric Arteries by Induction of Nuclear Factor Erythroid 2-Related Factor 2 (Nrf2) Translocation” (Oxidative Medicine and Cellular Longevity, 2019).
Ends that are not written are not given here.

Columns and labels:
Caco-2 cell monolayer [1] = assay: Immunofluorescence of Caco-2 monolayers after transport (zonulin-1, integrity); assay type: cell-based; conditions: after transport studies, all the concentrations tested
Protocol: The transwell membranes from TEER experiments were washed with PBS and fixed with 4% paraformaldehyde (PFA) for 15 min. Membranes were then washed in PBS and blocked with blocking solution (0.1% Triton, 1% BSA, 0.02% sodium azide, and 50 mM ammonium chloride) for 20 min at room temperature in the dark. Afterwards, they were incubated with an anti-zonulin 1 antibody (#402200, Invitrogen, Thermo Fisher Scientific, Waltham, MA, USA) at the final concentration of 2 μg mL^−1 at room temperature for 2 hours. Immunofluorescence staining was obtained by incubating the membranes for 90 min with Alexa Fluor 488 donkey anti-rabbit IgG (#A31573) at the final concentration of 4 μg mL^−1 (Invitrogen). The nuclei were counterstained with DAPI (1 : 2000). Membranes were cut down with an operating knife blade along the margin of the chamber and were mounted on slides using VectaMount solution (AQ Vector Laboratories, Burlingame, CA, USA). Slides were examined under a Nikon fluorescence inverted microscope (Nikon Instruments Europe, Firenze, Italy) and then analyzed through ImageJ software as previously described.
Figure S3: Fluorescence micrograph of the Caco-2 cell monolayers. Caco-2 cell monolayers treated with BRP2 (50 µM, 2 h) from TEER experiments were stained for tight junction protein expression of zonulin-1 (FITC, green). Nuclei were counterstained with DAPI (blue). […]

Caco-2 cell monolayer [2] = assay: Caco-2 cell monolayer permeation (transepithelial transport); assay type: in vitro ADME; conditions: UHPLC-MS/MS
Protocol: (§1) The colorectal adenocarcinoma (Caco-2) cell line was purchased from ATCC (Rockville, MD, USA). Cells were maintained in high-glucose DMEM (4.5 g/L) supplemented with 2 mM L-glutamine and 10% (v/v) heat-inactivated foetal bovine serum. Cells were cultured at 37°C in a humidified 5% CO2 atmosphere. To induce enterocytic Caco-2 differentiation, cells were seeded in a 12-well multiwell in transwell inserts (PET membrane, 0.4 μm pore size, 1.12 cm^2 surface area) at 2.6 × 10^5 cells/cm^2 and maintained for 21 days in complete medium. The medium was changed every second day. By 21 days, the monolayers become completely differentiated.
(§2) The integrity of the monolayers was evaluated by measurement of the transepithelial electrical resistance (TEER) using an EVOM2 epithelial voltohmmeter (World Precision Instruments, Sarasota, FL, USA). Only monolayers showing TEER higher than 300 Ω × cm^2 were then used for transport experiments. The integrity of the monolayers was checked before, during, and after the experiment. The filters were washed for 15-20 min at 37°C adding prewarmed Hank's balanced salt solution buffered with 25 mM HEPES and NaHCO3 (0.35 g/L) at pH 7.4 to the apical (0.4 mL) and to the basolateral (1.2 mL) transwell compartments, as previously described. For transport experiments, donor solution containing BRP2 peptide at the desired concentration (100-1 μM) was added to the apical compartment for the apical to basolateral (absorptive) direction. Samples from the receiving compartment were collected at different time points up to 120 min (15, 30, 60, 90, and 120 min). Samples from the donor compartment were collected at time 0 and at the end of the experiment (120 min) for the calculation of the mass balance.
(§3) Samples were stored at −20°C until UHPLC-MS/MS analyses to measure the concentration of BRP2 in both compartments (for detailed conditions, see Supporting Information ).
(§4) The apparent permeability coefficient (Papp) was calculated as described according to (1) Papp=dMR^t/dt×1/A×CD0, where MR is the amount of substance in the receiver chamber, A (cm^2) is the surface area of the barrier, and CD0 (μM) is the initial donor concentration. The reduction in donor concentration was also taken after every sampling (see Supporting Information ).
(§5) Instead, for the quantification of BRP2 in donor and receiver chamber, the stock solution was diluted with fresh HBSS to a series of concentrations ranged of 125-0.5 nM to establish the calibration curve (y = 0.000001x – 0,000363; R^2 ≥ 0.9997).
(§6) The apparent permeability values of BRP2 were calculated according to the Eq. 1. This calculation requires that the sink conditions are fulfilled, that is, the ratio CR/CD is less than 0.1 at each sampling point used in the analysis. […] The donor concentration was recalculated by subtracting the cumulative amount transported to the receiver chamber for each time interval:
(§7) CD (ti) and CR (ti) (μM): donor and receiver chamber concentrations calculated at each sample occasion (i) from the donor and receiver concentrations at the previous occasion CD (ti–1) and CR (ti–1), respectively; f=1–VS/VR: sample replacement diluition factor; VS (cm^3): sample volume; VR (cm^3): receiver chamber volume; VD (cm^3): donor chamber volume. ^[28]
(§8) recovery (%) = (CD(fin) × VD +∑ (CS(t) × VS(t)) + CR(fin) × VR(fin)) × 100 / (CD(0) × VD(0)) […]

[3] = as above; assay type: in vitro ADME; conditions: human, Caco-2, 21-day, transwell, apical to basolateral, HBSS 25 mM HEPES pH 7.4, 37°C, time point 120 min, UHPLC-MS/MS, means ± S.D.
Protocol: as §1, §2, §3, §4, §5, §6, §7, §8

Caco-2 cell monolayer integrity (zonulin-1 expression) (Caco-2 cell monolayer [1]): preserved | Papp (Caco-2 cell monolayer [2]; BRP2 10 μM, Caco-2, 21-day, transwell, apical to basolateral, HBSS 25 mM HEPES pH 7.4, 37°C, time point 120 min, means ± S.D.): 0.53 ± 0.01 10^-6 cm/s | mass balance (recovery) (Caco-2 cell monolayer [2]; Caco-2 transport, donor sampled at 0 and 120 min): more than 80% | Papp A→B at 120 min, 1 μM ([3]; BRP2 1 μM): 0.53 ± 0.15 ×10⁻⁶ cm/s | Papp A→B at 120 min, 50 μM ([3]; BRP2 50 μM): 0.2 ± 0.05 ×10⁻⁶ cm/s | Papp A→B at 120 min, 100 μM ([3]; BRP2 100 μM): 0.27 ± 0.07 ×10⁻⁶ cm/s
Substance: SFNPTQL [BRP2, Ser-Phe-Asn-Pro-Thr-Gln-Leu]
